Results from patent publication EP0089900B1, “New N-((2-oxo-1-pyrrolidinyl)acetyl)piperazines, the methods of producing such new compounds and their salts as well as pharmaceutical preparations for therapeutic use containing these compounds or salts” (PRODES S.A., priority 1982, dated 1983).

How the values were obtained:
mouse = experiment: Protection against lethality: quick decapitation, gasping time; assay type: in vivo; conditions: gasping time after decapitation of mouse
Description: The second trial is the quick decapitation of mouse. The head has a typical mandibular movement, known as gasping, as searching the breathing air.

anesthetized dogs = experiment: Electromagnetic blood flow measurement (vertebral/cerebral blood flow); assay type: in vivo; conditions: vertebral blood flow, administration via saphenous vein
Description: After orotraqueal intubation, artificial respiration with normal air was instituted using a Manley Pul- movent respirator. The correct ventilation of the dogs was checked after all the surgical procedures by determining the pO2, pCO2 and pH in arterial blood samples, as well as several times during the experiment by means of an Astrup apparatus. Blood pressure (4) was measured in left saphenous artery by means of a Bell & Howell pressure transducer, and the heart rate by means of a Beckman ECG device.
Recordings were made on an ink-writing Beckman polygraph. Left saphenous vein and right saphenous artery were canulated with polyethylene catheters for drug administration and blood collection respectively.
Vertebral blood flow was measured by a non-cannulating electromagnetic flowmeter (Carolina Medical Electronics) placed in the vertebral artery.
The Carolina digital flowmeter was connected to an Omniscribe Houston Instruments plotter.
Piracetam and nicotinic acid were used as control drugs.

Acute toxicity LD50 = conditions: in vivo; species and route not given
animals [1] = experiment: Protection against lethality: hypoxia-hypobara (decompression), survival time; assay type: in vivo
animals [2] = experiment: Protection against lethality: anoxia by CNK, survival time; assay type: in vivo

**Q.** What does the source list for `O=C(CN1CCCC1=O)N1CCN(CC=Cc2ccccc2)CC1` [N-[(2-oxo-1-pyrrolidinyl)-acetyl]-N'-cinnamylpiperazine]?
**A.** gasping (mouse; dose 300 mg/kg): Active; effect (anesthetized dogs; dose 2,5 mg/kg): Active; LD50 (Acute toxicity LD50): 1400 mg/kg; hypoxia hypobara (animals [1]; dose 300 mg/kg): Active; anoxia by CNK (animals [2]; dose 300 mg/kg): Active

**Q.** For `O=C(O)c1cccnc1` [Nicotinic acid, reference compound], which effect (anesthetized dogs; no dose given) is on record?
**A.** No effect

**Q.** Which gasping (mouse; dose 500 mg/kg) does the source give for `C=CCN1CCN(C(=O)CN2CCCC2=O)CC1` [N-[(2-oxo-1-pyrrolidinyl)acetyl]-N'-allylpiperazine] here?
**A.** Active

**Q.** What about the effect (anesthetized dogs; dose 2,5 mg/kg) of the same compound?
**A.** Active

**Q.** What about the LD50 (Acute toxicity LD50) of the same compound?
**A.** 4000 mg/kg

**Q.** What about the hypoxia hypobara (animals [1]; dose 500 mg/kg) of the same compound?
**A.** Active

**Q.** And the “anoxia by CNK” value (animals [2]; dose 500 mg/kg)?
**A.** Active

**Q.** Which results are given for `NC(=O)CN1CCCC1=O` [(2-oxo-1-pyrrolidinyl)acetamide, reference compound]?
**A.** gasping (mouse; dose 1000 mg/kg): No effect; effect (anesthetized dogs; no dose given): No effect; hypoxia hypobara (animals [1]; dose 1000 mg/kg): No effect; anoxia by CNK (animals [2]; dose 1000 mg/kg): No effect

**Q.** What does the source list for `COc1ccc(CN2CCN(C(=O)CN3CCCC3=O)CC2)cc1` [N-[(2-oxo-1-pyrrolidinyl)acetyl]-N'-(p-methoxybenzyl)piperazine]?
**A.** gasping (mouse; dose 250 mg/kg): Active; effect (anesthetized dogs; dose 1 mg/kg): Active; LD50 (Acute toxicity LD50): 1110 mg/kg; hypoxia hypobara (animals [1]; dose 250 mg/kg): Active; anoxia by CNK (animals [2]; dose 250 mg/kg): No effect

**Q.** With `O=C1NC(=O)C(c2ccccc2)(c2ccccc2)N1` [Diphenylhydantoine, reference compound] as the compound, how does the hypoxia hypobara (animals [1]; dose 100 mg/kg) read?
**A.** Active

**Q.** And the “anoxia by CNK” value (animals [2]; dose 100 mg/kg)?
**A.** Active
